One experiment deals with Met. Kind of experiment: HGF induced activation of Met and Erk in endothelial cells. Particulars: HUVEC, HAOEC and HCMEC; added before induction with HGF. It is filed as cell-based, human. Here is the method:
FIG. 12: CD44v6 is required for activation of Met and downstream signaling in several ECs. Different ECs (HUVEC, HAOEC and HCMEC) were serum starved and incubated with several reagents (aCD44v6, v6 14mer and the controls IgG and ctrl pep). The growth factor HGF was added and the cells were lysed. The proteins in the cell lysates were separated by SDS-PAGE and subjected to Western blot analysis. Activation of Met and of its downstream target Erk was detected by means of phospho-specific antibodies that detect phosphorylated forms of Met and Erk. In order to check equal loading of the different samples the membrane was incubated with stripping solution and reprobed with antibodies recognising all Met and Erk proteins. The numbers indicate the fold induction as calculated with the computer programme ImageJ.
When these ECs were treated with HGF, the receptor tyrosine kinase Met was phosphorylated and signaling to Erk—a downstream target of Met—was promoted (FIG. 12). The contribution of CD44v6 to Met signaling in these cells was analysed using different tools.

A further experiment relates to HUVEC. Kind of experiment: HUVEC spheroid sprouting assay. It counts as cell-based, human. To be noted: 100 ng/ml peptide, VEGFs 40 ng/ml, 48 h. Here is the method: FIG. 19: Spheroids of HUVECs (750 cells) were generated in hanging drops. They were suspended in Endothelial Cell Growth Medium containing 1 mg/ml rat tail collagen I and 0.6% (wt/vol) methylcellulose and distributed in 48-well plates (30 spheroids/well). After solidification at 37° C. the mixture was overlaid with Endothelial Cell Growth Medium containing 100 ng/ml v6 peptide (human v6 14mer) or control peptide and VEGFs (40 ng/ml). Pictures were taken 48 h later and sprouting was quantified with the computer program ImageJ.
Clusters of HUVEC cells, so-called spheroids, were generated in hanging drops and embedded in a three-dimensional collagen matrix. They were overlaid with medium containing the blocking substances and the growth factors. Activated by the growth factors VEGF-A165 and VEGF-A121 the ECs started to grow out of the spheroids (FIG. 19). […] Sprouting of the ECs was quantified by analysing the total length of all sprouts originating from one spheroid.

The subject of experiment [1] is ErbB receptors. The experiment in a line: ErbB ligand induced Erk-kinase phosphorylation in HT29 cells. To be noted: HT29, 100 ng/ml peptide 5 min, 20 ng/ml ligand. It counts as cell-based, human. Here is the method:
FIG. 15: In contrast to EGF and ER, induction of the ErbB-receptors via TGF-α, BC, Her, HB-EGF or AR is completely independent of CD44v6. Serum-starved HT29 cells were pre-incubated for 5 min with 100 ng/ml of a CD44v6-specific peptide (human v6 14mer) or a control peptide. Afterwards the cells were induced with 20 ng/ml of various ErbB ligands as indicated. The cell lysates were resolved by SDS-PAGE. Western-blotting was used to detect ErbB ligands-induced Erk-kinase phopshorylation.
For this purpose HT29 cells were serum-starved for 24 hours and pre-treated with the v6-specific or a control peptide. They were then induced with the indicated ErbB ligands. Erk-kinase phosphorylation was used as a read-out for receptor activation. All ligands could activate the Erk-kinase. […] These ligands are independent of CD44v6 for their induction of the ErbB receptors. This is especially striking, since EGF and TGF-α address the same receptor pairs (ErbB1/1 or ErbB1/2).

In another experiment the test system is VEGFR-2. The experiment in a line: VEGF-A165 induced activation of VEGFR-2 and Erk in endothelial cells. It counts as cell-based, human. To be noted: HUVEC, HAOEC and HCMEC. The method, then: FIG. 13: Activation of VEGFR-2 and signal transduction induced by VEGF-A165 depends on CD44v6. Different ECs (HUVEC, HAOEC and HCMEC) were serum starved and incubated with several reagents (αCD44v6, v6 14mer and the controls IgG and ctrl pep). The cells were then induced with VEGF-A165 and lysed. The cell lysates were loaded on SDS-PAGE and subjected to Western blot analysis. Activation of the receptor tyrosine kinase VEGFR-2 and of its downstream target Erk was detected by means of antibodies that detect phosphorylated forms of VEGFR-2 and Erk. The loading control was performed with antibodies recognising total VEGFR-2 and Erk levels. The numbers indicate the fold induction as calculated with the computer programme ImageJ.
In order investigate if an isoform of CD44 is necessary for VEGFR-2 activation, the three tools inhibiting CD44v6 activity were used in an experiment where VEGFR-2 was activated by VEGF-A165. As expected all ECs responded to VEGF-A165 treatment with VEGFR-2 phosphorylation and signal transduction to Erk. […] Thus CD44v6 is also necessary for a functional VEGF-A165/VEGFR-2 system in these cells.

Experiment [2] concerns ErbB receptors. Kind of experiment: EGF / TGFα induced Erk phosphorylation in MCF7. It is filed as cell-based, human. To be noted: 100 ng/ml peptide.
The next experiment concerns APC/Min/+ mice. The experiment in a line: APC/Min/+ mouse model, tumors in the duodenum. It counts as in vivo. The method, then: The effect of the v6 14mer was tested in the APC/Min/+ model model using 18 week old mice. The animals received an i.p. injection of 20 μg of v6 14mer (mouse 14mer) or control peptide (rat 14mer) three times per week for 6 weeks. Animals (three per group) were sacrificed at the end of the experiment and the duodenum was analyzed for the total number of tumors (FIG. 25).

In the next experiment the test system is HT29 cells. Kind of experiment: HGF induced scattering of HT29 cells. It is filed as cell-based, human. Particulars: HT29, HGF 50 ng/ml 24 h, human peptides prior to induction (FIG. 17). The method, then:
FIG. 17: The human CD44 v6 specific peptides block HGF induced cell scattering and invasion into matrigel. Scattering of HT29 cells was determined in 24-well plates. First, 4.5×10^4 cells were seeded at 37° C.; after 24 h the cells were serum starved for additional 24 h. the cells were either left untreated (control) or later treated with HGF (50 ng/ml) for 24 h. Where indicated the cells were treated with the v6 specific peptide (human v6 5mer, 10mer, 14mer) or control peptide prior to induction with HGF for 30 min. Pictures were made using phase contrast microscopy. Magnification 40×.
A scatter assay was performed additionally. HT29 colon cancer cells were grown in medium containing 10% FCS. One day after seeding, the cells were starved. On the third day, the cells were induced with HGF (10 ng/ml) and pre-incubated with either no peptide, ctrl-peptides (SEQ ID No.: 15), non-pegylated v6-peptides (SEQ ID No.: 11) or the pegylated peptides, namely PEG-rat control peptide and PEG-rat CD44v6 peptide.
Scattering of HT29 cells was determined in 24-well plates. First, 4×10^5 cells were seeded at 37° C.; the cells were either left untreated or 48 h later treated with HGF (50 ng/ml) for 24 h or with PEGylated or non-PEGylated peptides (100 ng/ml) prior to HGF induction for 30 min.

On to “KEQWFGNRWHEGYR [human 14mer, human CD44v6 14mer peptide]”, for which the “activation of Met and of its downstream target Erk” value with Met is “able to prevent activation of Met and of its downstream target Erk”. In the experiment on HUVEC, the “sprouting in response to VEGF-A (VEGF-A165, VEGF-A121)” value was “blocked completely”. In addition, in the experiment with ErbB receptors [1], the “AR, BC, HB-EGF and TGF-α-induced activation of the ErbB receptors” value is given as “could not be inhibited”; the “EGF- and ER-dependent Erk phosphorylation” value was “inhibited”. Also, the “VEGFR-2 activation and downstream signaling to Erk induced by VEGF-A165” value with VEGFR-2 is “blocked VEGFR-2 activation and downstream signaling to Erk”. Moreover, in the experiment on ErbB receptors [2] (20 ng/ml EGF (FIG. 16)), the “Erk phosphorylation upon EGF treatment” value is “blocking of Erk phosphorylation upon EGF treatment”. Also, the “Erk phosphorylation upon TGFα induction” value in the experiment with ErbB receptors [2] (20 ng/ml TGFα (FIG. 16)) is given as “not upon TGFα induction”. Further, the “number of tumors in the duodenum” value in the experiment on APC/Min/+ mice (i.p. injection for 6 weeks (FIG. 25)) is given as “reduces the number of tumors in the duodenum”. The “decrease according to the size of the tumor” value in the experiment on APC/Min/+ mice (mouse 14mer 20 μg i.p. three times per week for 6 weeks) is recorded as “more pronounced in case of small tumors (0-1 mm>1-2 mm>2-5 mm)”. Also, in the experiment with APC/Min/+ mice (mouse 14mer 20 μg i.p. three times per week for 6 weeks, 18 week old mice, preliminary data), the “tumor size in the duodenum” value is reported as “strong decrease of the tumor size in the duodenum”. Moreover, the “tumor number for tumors bigger than 5 mm” value in the experiment on APC/Min/+ mice (mouse 14mer 20 μg i.p. three times per week for 6 weeks, versus control peptide) is on record as “higher”. Further, the “HGF induced scattering or invasion through the extracellular matrix” value with HT29 cells was “prevented completely scattering or invasion through the extracellular matrix”.

Source of the values: patent US9593146B2, “CD44v6-derived peptides for treating metastasizing cancer” (AMCURE GMBH, priority 2012, dated 2017).
